The text below walks through data of US20170029383A1, “Diaminotriazine Derivatives as Herbicides” (BASF SE, priority 2014, published 2017).

What all share (assay): greenhouse experiment, pre-emergence treatment
Holding throughout (conditions): pre-emergence method, application rate 0.500 kg/ha; scale from 0 to 100

One experiment relates to SETFA. Format: in vivo, Setaria faberi. The source says: (§1) The seeds of the test plants were sown separately for each species. For the pre-emergence treatment, the active ingredients, which had been suspended or emulsified in water, were applied directly after sowing by means of finely distributing nozzles. The containers were irrigated gently to promote germination and growth and subsequently covered with transparent plastic hoods until the plants had rooted. This cover caused uniform germination of the test plants, unless this had been impaired by the active ingredients. Depending on the species, the plants were kept at 10-25° C. or 20-35° C., respectively. The test period extended over 2 to 4 weeks. During this time, the plants were tended, and their response to the individual treatments was evaluated. Evaluation was carried out using a scale from 0 to 100. 100 means no emergence of the plants, or complete destruction of at least the aerial moieties, and 0 means no damage, or normal course of growth. A moderate herbicidal activity is given at values of at least 60, a good herbicidal activity is given at values of at least 70, and a very good herbicidal activity is given at values of at least 85. The plants used in the greenhouse experiments were of the following species: [table]

The test system of another experiment is ABUTH. It counts as in vivo, Abutilon theophrasti.
Text: as §1

The next experiment relates to AMARE. Format: in vivo, Amaranthus retroflexus.
Text: as §1

As to `CC(C)Oc1cccc(F)c1Nc1nc(N)nc(C(C)(C)F)n1` [Example 1, N2-(2-fluoro-6-isopropoxy-phenyl)-6-(1-fluoro-1-methyl-ethyl)-1,3,5-triazine-2,4-diamine], the “herbicidal activity against SETFA” value in the experiment on SETFA is given as “very good (a very good herbicidal activity is given at values of at least 85)”. The “herbicidal activity against ABUTH” value in the experiment on ABUTH is listed as “very good (a very good herbicidal activity is given at values of at least 85)”. Moreover, the “herbicidal activity against AMARE” value in the experiment with AMARE is “very good (a very good herbicidal activity is given at values of at least 85)”.
